This test deals with S180 ascites. The test can be described thus: Anti-tumor evaluation: % increase in life span (% ILS) and survivors, S180 ascites in female CFW Swiss mice. The class given is in vivo. The settings on record: for Best % ILS: best over doses. As to the method: The above-prepared compounds were evaluated against S180 ascites in female CFW Swiss mice. The mice were weighed (average weight: 20 g), placed into cages (four or six mice to a cage), and on day zero the mice were inoculated with 0.2 ml of a freshly prepared saline suspension (0.15 M NaCl) containing 1×10^7 tumor cells/ml or a total of 2×10^6 cells This inoculum was freshly prepared using "transfer" mice, which had been injected with tumor cells the previous week; it was obtained via the following steps: (1) the removal of cells from the peritoneal cavity of the sacrificed transfer mouse, (2) alternate centrifugation and washing operations (2-3 times with cold saline) to remove blood and other components, and (3) dilution of the volume of the packed cell with saline (1:3). A final centrifugation was carried out at 1000 RPM over a two minute period. A cell count was made on a 2,000-fold dilution of this 1:3 suspension by means of a Coulter Counter. A final dilution to 1×10^7 cells/ml was made, based on the average count.
On day 1, solutions of the test compounds were prepared, and each mouse in a set of four or six were injected with the same test compound at the same dosage. The doses were based on the average weight of the animals (cage weight). Also, beginning on day 1, two controls were employed containing six mice per control:
(1) Normal Control: This consisted solely of the carrier or diluent used in combination with the test compound; and
(2) Positive Control: This consisted solely of known anti-tumor agent cis-[Pt(NH3)2 Cl2 ] in saline (8 mg/kg) to test the response of the biological system.
The effectiveness of a test compound was measured in terms of the % increase in life span (%ILS) of the test mice relative to the Normal Control (Calculated from the day of tumor inoculation, i.e., day zero). To standardize the test data and permit intercomparisons, the day of evaluation was arbitrarily taken as that day corresponding to twice the mean life span (or average day of death) of the control. This established a practical upper limit of 100% on the %ILS attainable. For calculation purposes, the survivors of the day of evaluation were considered to have died on that day. The %ILS was calculated as follows: [formula] ILS values in excess of 50% were interpreted as antitumor activity, whereas values in excess of 75% indicated excellent antitumor activity.
All test compounds were evaluated in water containing 0.1-0.3% of the suspending agent "Klucel" (hydroxypropylcellulose).
Tables 3 and 4, infra, show the criticality of the ring size and the thiocyanato substituents, respectively. The protocols for determining effectiveness for the products in Tables 3 and 4 were identical to the procedure employed for determining the anti-tumor effectiveness of the products in Table 2.

The mark [1] stands for this setting: dose 10 mg/kg, on day of evaluation.
[2] abbreviates: dose 20 mg/kg, on day of evaluation.
Where [3] appears, read: dose 40 mg/kg, on day of evaluation.
The mark [4] stands for this setting: dose 80 mg/kg, on day of evaluation.
Where [5] appears, read: dose 160 mg/kg, on day of evaluation.
Setting [6] is: dose 320 mg/kg, on day of evaluation.
Where [7] appears, read: dose 5 mg/kg, on day of evaluation (twice mean life span of control).

Take `N#C[S][Pd-2]1([S]C#N)[NH2+]CCC[NH2+]1` [Comp. Ex. A, bis(thiocyanato)-1,3-diaminopropanepalladium(II)]: the “% ILS” value (dose 10 mg/kg) worked out at 1%; the “% ILS” value (dose 20 mg/kg) stood at 9%; the “% ILS” value (dose 40 mg/kg) is recorded as -4%; the “% ILS” value (dose 80 mg/kg) is on record as -70%; the “% ILS” value (dose 160 mg/kg) was -88%; the “% ILS” value (dose 320 mg/kg) is given as -93%. Further, the Survivors was 0 of 4 under setting [1]; 0 of 4 under setting [2]; 0 of 4 under setting [3]; 0 of 4 under setting [4]; 0 of 4 under setting [5]; 0 of 4 under setting [6].

For `N#C[S][Pd][S]C#N.NCCCCN` [Comp. Ex. B, bis(thiocyanato)-1,4-diaminobutanepalladium(II)], the “% ILS” value (dose 10 mg/kg) is on record as -1%; the “% ILS” value (dose 20 mg/kg) is 15%; the “% ILS” value (dose 40 mg/kg) is listed as -4%; the “% ILS” value (dose 80 mg/kg) is recorded as -21%; the “% ILS” value (dose 160 mg/kg) came to 47%; the “% ILS” value (dose 320 mg/kg) is 2%. In addition, the Survivors under setting [1] was 0 of 6; the Survivors under setting [2] is reported as 0 of 6; the Survivors under setting [3] was 0 of 6; the Survivors under setting [4] is 0 of 5; the Survivors under setting [5] is listed as 0 of 5; the Survivors under setting [6] is 0 of 5.

As for `N#C[S][Pd]1([S]C#N)[NH]CC(O)C[NH]1` [Comp. Ex. C, bis(thiocyanato)-1,3-diamino-2-propanolpalladium(II)], the “% ILS” value (dose 10 mg/kg) is -4%; the “% ILS” value (dose 20 mg/kg) is given as -7%; the “% ILS” value (dose 40 mg/kg) is recorded as -8%; the “% ILS” value (dose 80 mg/kg) is reported as -76%; the “% ILS” value (dose 160 mg/kg) is -87%; the “% ILS” value (dose 320 mg/kg) is -92%. The Survivors is listed as 0 of 6 under setting [1]; 0 of 6 under setting [2]; 0 of 6 under setting [3]; 0 of 6 under setting [4]; 0 of 6 under setting [5]; 0 of 6 under setting [6].

Turning to `N#C[S][Pd-2]1([S]C#N)[NH2+]c2cccc3cccc(c23)[NH2+]1` [Comp. Ex. D, bis(thiocyanato)-1,8-diaminonaphthalenepalladium(II)], the “% ILS” value by setting is: (dose 10 mg/kg) -11%; (dose 20 mg/kg) -9%; (dose 40 mg/kg) -11%; (dose 80 mg/kg) -19%; (dose 160 mg/kg) -28%; (dose 320 mg/kg) 48%. In addition, the Survivors reads like this: under setting [1], 0 of 6; under setting [2], 0 of 6; under setting [3], 0 of 6; under setting [4], 0 of 6; under setting [5], 0 of 6; under setting [6], 1 of 6.

Regarding `N#C[S-].N#C[S-].NCC(=O)CN.[Pd+2]` [Comp. Ex. E, Bis(Thiocyanato)diaminoacetonepalladium(II)], the “% ILS” value is recorded as 3% (dose 5 mg/kg); 8% (dose 10 mg/kg); 13% (dose 20 mg/kg); 3% (dose 40 mg/kg); 1% (dose 80 mg/kg); 13% (dose 160 mg/kg). Moreover, the Survivors was 0 of 4 under setting [7]; 0 of 4 under setting [1]; 0 of 4 under setting [2]; 0 of 4 under setting [3]; 0 of 4 under setting [4]; 0 of 4 under setting [5].

In the case of `NCCN.O=N[O-].O=N[O-].[Pd+2]` [Comp. Ex. F, Dinitro(Ethylenediamine)palladium(II)], the “% ILS” value (dose 10 mg/kg) is on record as 2%; the “% ILS” value (dose 20 mg/kg) came out at 6%; the “% ILS” value (dose 40 mg/kg) is -15%; the “% ILS” value (dose 80 mg/kg) is -59%; the “% ILS” value (dose 160 mg/kg) is recorded as -87%. The Survivors under setting [1] was 0 of 4; the Survivors under setting [2] is on record as 0 of 4; the Survivors under setting [3] is 0 of 4; the Survivors under setting [4] is recorded as 0 of 4; the Survivors under setting [5] is 0 of 4.

Consider `NCCCN.O=[N+]([O-])[Pd][N+](=O)[O-]` [Comp. Ex. G, dinitro(1,3-diaminopropane)palladium(II)], for which the “% ILS” value runs as follows: (dose 10 mg/kg) 13%; (dose 20 mg/kg) 16%; (dose 40 mg/kg) 27%; (dose 80 mg/kg) 0%; (dose 160 mg/kg) -89%. Besides, the Survivors runs as follows: under setting [1], 0 of 4; under setting [2], 0 of 4; under setting [3], 0 of 4; under setting [4], 1 of 4; under setting [5], 0 of 4.

For the compound `NC1CCCCC1N.O=[N+]([O-])[Pd][N+](=O)[O-]` (centres unmarked) [Comp. Ex. H, Dinitro(1,2-diaminocyclohexane)palladium(II)], the “% ILS” value (dose 10 mg/kg) is 12%, the “% ILS” value (dose 20 mg/kg) turned out to be 3%, the “% ILS” value (dose 40 mg/kg) was -3% and the “% ILS” value (dose 80 mg/kg) is on record as 21%. In addition, the Survivors is, setting by setting: under setting [1], 0 of 4; under setting [2], 0 of 4; under setting [3], 0 of 4; under setting [4], 0 of 4.

On to `Nc1ccccc1N.O=N[O-].O=N[O-].[Pd+2]` [Comp. Ex. I, dinitro(o-phenylenediamine)palladium(II)], for which the “% ILS” value is, setting by setting: (dose 10 mg/kg) 21%; (dose 20 mg/kg) 3%; (dose 40 mg/kg) 29%; (dose 80 mg/kg) 19%. The Survivors by setting is: under setting [1], 0 of 4; under setting [2], 0 of 4; under setting [3], 1 of 4; under setting [4], 0 of 4.

`NCCN.[I-].[I-].[Pd+2]` [Comp. Ex. L, Diiodo(ethylenediamine)palladium(II)]: the “% ILS” value is listed as -17% (dose 5 mg/kg); -13% (dose 10 mg/kg); -9% (dose 20 mg/kg); -11% (dose 40 mg/kg); 24% (dose 80 mg/kg); 32% (dose 160 mg/kg). Moreover, the Survivors under setting [7] was 0 of 4; the Survivors under setting [1] is recorded as 0 of 4; the Survivors under setting [2] was 0 of 4; the Survivors under setting [3] was 0 of 4; the Survivors under setting [4] is given as 0 of 4; the Survivors under setting [5] is given as 1 of 4.

As to `[I][Pd]1([I])[NH]C2CCCCC2[NH]1` (centres unmarked) [Comp. Ex. M, Diiodo(1,2-Diaminocyclohexane)palladium(II)], the “% ILS” value (dose 5 mg/kg) was -4%; the “% ILS” value (dose 10 mg/kg) was -9%; the “% ILS” value (dose 20 mg/kg) is reported as -20%; the “% ILS” value (dose 40 mg/kg) is -15%; the “% ILS” value (dose 80 mg/kg) is recorded as -16%; the “% ILS” value (dose 160 mg/kg) was 77%. In addition, the Survivors reads like this: under setting [7], 0 of 4; under setting [1], 0 of 4; under setting [2], 0 of 4; under setting [3], 0 of 4; under setting [4], 0 of 4; under setting [5], 1 of 4.

For the compound `N#C[S-].N#C[S-].NCCN.[Pd+2]` [Ex. 1, Bis(Thiocyanato)ethylenediaminepalladium(II)], the “Best % ILS” value is reported as 79%. In addition, the “% ILS” value (dose 10 mg/kg) is on record as 2%. Moreover, the Survivors under setting [1] is reported as 0 of 4. In addition, the “% ILS” value (dose 20 mg/kg) is on record as 18%. For the same compound, under setting [2], the Survivors is given as 0 of 4. In addition, the “% ILS” value (dose 40 mg/kg) turned out to be 79%. Moreover, the Survivors under setting [3] is listed as 0 of 4. Moreover, the “% ILS” value (dose 80 mg/kg) is listed as 2%. Moreover, the Survivors under setting [4] is listed as 1 of 4. For the same compound, the “% ILS” value (dose 160 mg/kg) was -87%. Also, the Survivors under setting [5] was 0 of 4. Moreover, the “% ILS” value (dose 320 mg/kg) is listed as -87%. For the same compound, under setting [6], the Survivors was 0 of 4.

Turning to `CC1C[NH][Pd]([S]C#N)([S]C#N)[NH]1` (centres unmarked) [Ex. 2, Bis(Thiocyanato)-1,2-Diaminopropanepalladium(II)], the “Best % ILS” value is 59%. Further, the “% ILS” value (dose 5 mg/kg) was 16%. Also, the Survivors under setting [7] is on record as 0 of 6. Also, the “% ILS” value (dose 10 mg/kg) came to 13%. In addition, under setting [1], the Survivors was 0 of 6. Also, the “% ILS” value (dose 20 mg/kg) amounted to 17%. In addition, the Survivors under setting [2] is 0 of 6. Besides, the “% ILS” value (dose 40 mg/kg) was determined as 59%. Under setting [3], the Survivors is on record as 2 of 6. Moreover, the “% ILS” value (dose 80 mg/kg) is given as -21%. In addition, under setting [4], the Survivors is 1 of 6. Where the note is “dose 160 mg/kg”, the “% ILS” value is -74%. Moreover, the Survivors under setting [5] is recorded as 0 of 6.

These data come from US4783482A, “Bis(thiocyanato)palladium(II)complexes” (Engelhard Corporation, priority 1985, dated 1988).
